Test results as given in patent US20120220564A1, “SELECTIVE CALCIUM CHANNEL MODULATORS” (Zalicus Pharmaceuticals Ltd., priority 2009, published 2012).

Key:
α1H (CaV 3.2) = biological target: T1, α1H (CaV 3.2) (Homo sapiens, UniProt O95180); assay: T-type calcium channel block, whole cell patch clamp; format: cell-based; conditions: HEK cells, mainly non-inactivated protocol; values above 10,000 nM represented as 10000
T1 construct: expressed in transfected cells; host or cells: HEK 293
Method: (§1) T-type calcium channel blocking activity was assayed in human embryonic kidney cells, HEK 293 (Invitrogen), stably transfected with the T-type calcium channel subunits. Briefly, cells were cultured in Dulbecco's modified eagle medium (DMEM) supplemented with 10% fetal bovine serum, 200 U/ml penicillin, and 0.2 mg/mL streptomycin at 37° C. with 5% CO2. At 85% confluency, cells were split with 0.25% trypsin/1 mM EDTA and plated at 10% confluency on glass coverslips. At 12 hours, the medium was replaced, and the cells stably transfected using a standard calcium phosphate protocol and the appropriate calcium channel cDNA's. Fresh DMEM was supplied, and the cells transferred to 28° C./5% CO2. Cells were incubated for 1 to 2 days prior to whole cell recording.
(§2) Standard patch-clamp techniques were employed to identify blockers of T-type currents. Briefly, previously described HEK cell lines stably expressing human α1G, α1H and α1I T-type channels were used for all the recordings (passage #: 4-20, 37° C., 5% CO2). Whole cell patch clamp experiments were performed using an Axopatch 200B amplifier (Axon Instruments, Burlingame, Calif.) linked to a personal computer equipped with pCLAMP software. Data were analyzed using Clampfit (Axon Instruments) and SigmaPlot 4.0 (Jandel Scientific). To obtain T-type currents, plastic dishes containing semi-confluent cells were positioned on the stage of a ZEISS AXIOVERT S100 microscope after replacing the culture medium with external solution (Table 2). Whole-cell patches were obtained using pipettes (borosilicate glass with filament, O.D.: 1.5 mm, I.D.: 0.86 mm, 10 cm length), fabricated on a SUTTER P-97 puller with resistance values of ˜5 MΩ (Table 3).
(§3) T-type currents were reliably obtained by using two voltage protocols:
(§4) In the non-inactivating protocol, the holding potential is set at −110 mV and with a pre-pulse at −100 mV for 1 second prior to the test pulse at −40 mV for 50 ms. In the inactivation protocol, the pre-pulse is at approximately −85 mV for 1 second, which inactivates about 15% of the T-type channels (Scheme 1).
(§5) Test compounds were dissolved in external solution, 0.1-0.01% DMSO. After ˜10 minutes rest, they were applied by gravity close to the cell using a WPI microfil tubing. The “non-inactivated” pre-pulse was used to examine the resting block of a compound. The “inactivated” protocol was employed to study voltage-dependent block. However, the initial data shown below were mainly obtained using the non-inactivated protocol only. IC50 values are shown for various compounds of the invention in Table 4. […] In Table 4, empty cells indicate that inhibition by the compound was not detected.

α1G (CaV 3.1) = biological target: T2, α1G (CaV 3.1) (Homo sapiens, UniProt O43497); assay: as above; format: cell-based; conditions: HEK cells, mainly non-inactivated protocol; values above 10,000 nM represented as 10000
T2 construct: expressed in transfected cells; host or cells: HEK 293
Method: as §1, §2, §3, §4, §5

[1] = system: minimal muscular or neurological impairment (rotarod); assay: Mouse rotarod assay; format: in vivo, mice
Method: To assess a compound's undesirable side effects (toxicity), animals can be monitored for overt signs of impaired neurological or muscular function. In mice, the rotarod procedure (Dunham and Miya, J. Am. Pharmacol. Assoc. 46:208-209 (1957)) is used to disclose minimal muscular or neurological impairment (MMI). When a mouse is placed on a rod that rotates at a speed of 6 rpm, the animal can maintain its equilibrium for long periods of time. The animal is considered toxic if it falls off this rotating rod three times during a 1-min period.

6 Hz psychomotor seizure = 6 Hz psychomotor seizure model of partial epilepsy; format: in vivo, mice; design: concentration or dose not given beside the values
Source text: Compounds can also be evaluated for the protection against seizures induced by a 6 Hz, 0.2 ms rectangular pulse width of 3 s duration, at a stimulus intensity of 32 mA (CC97) applied to the cornea of male CF1 mice (20-30 g) according to procedures described by Barton et al, “Pharmacological Characterization of the 6 Hz Psychomotor Seizure Model of Partial Epilepsy,” Epilepsy Res. 47(3):217-27 (2001). Seizures are characterised by the expression of one or more of the following behaviours: stun, forelimb clonus, twitching of the vibrissae and Straub-tail immediately following electrical stimulation.

T1 sequence (O95180 whole entry): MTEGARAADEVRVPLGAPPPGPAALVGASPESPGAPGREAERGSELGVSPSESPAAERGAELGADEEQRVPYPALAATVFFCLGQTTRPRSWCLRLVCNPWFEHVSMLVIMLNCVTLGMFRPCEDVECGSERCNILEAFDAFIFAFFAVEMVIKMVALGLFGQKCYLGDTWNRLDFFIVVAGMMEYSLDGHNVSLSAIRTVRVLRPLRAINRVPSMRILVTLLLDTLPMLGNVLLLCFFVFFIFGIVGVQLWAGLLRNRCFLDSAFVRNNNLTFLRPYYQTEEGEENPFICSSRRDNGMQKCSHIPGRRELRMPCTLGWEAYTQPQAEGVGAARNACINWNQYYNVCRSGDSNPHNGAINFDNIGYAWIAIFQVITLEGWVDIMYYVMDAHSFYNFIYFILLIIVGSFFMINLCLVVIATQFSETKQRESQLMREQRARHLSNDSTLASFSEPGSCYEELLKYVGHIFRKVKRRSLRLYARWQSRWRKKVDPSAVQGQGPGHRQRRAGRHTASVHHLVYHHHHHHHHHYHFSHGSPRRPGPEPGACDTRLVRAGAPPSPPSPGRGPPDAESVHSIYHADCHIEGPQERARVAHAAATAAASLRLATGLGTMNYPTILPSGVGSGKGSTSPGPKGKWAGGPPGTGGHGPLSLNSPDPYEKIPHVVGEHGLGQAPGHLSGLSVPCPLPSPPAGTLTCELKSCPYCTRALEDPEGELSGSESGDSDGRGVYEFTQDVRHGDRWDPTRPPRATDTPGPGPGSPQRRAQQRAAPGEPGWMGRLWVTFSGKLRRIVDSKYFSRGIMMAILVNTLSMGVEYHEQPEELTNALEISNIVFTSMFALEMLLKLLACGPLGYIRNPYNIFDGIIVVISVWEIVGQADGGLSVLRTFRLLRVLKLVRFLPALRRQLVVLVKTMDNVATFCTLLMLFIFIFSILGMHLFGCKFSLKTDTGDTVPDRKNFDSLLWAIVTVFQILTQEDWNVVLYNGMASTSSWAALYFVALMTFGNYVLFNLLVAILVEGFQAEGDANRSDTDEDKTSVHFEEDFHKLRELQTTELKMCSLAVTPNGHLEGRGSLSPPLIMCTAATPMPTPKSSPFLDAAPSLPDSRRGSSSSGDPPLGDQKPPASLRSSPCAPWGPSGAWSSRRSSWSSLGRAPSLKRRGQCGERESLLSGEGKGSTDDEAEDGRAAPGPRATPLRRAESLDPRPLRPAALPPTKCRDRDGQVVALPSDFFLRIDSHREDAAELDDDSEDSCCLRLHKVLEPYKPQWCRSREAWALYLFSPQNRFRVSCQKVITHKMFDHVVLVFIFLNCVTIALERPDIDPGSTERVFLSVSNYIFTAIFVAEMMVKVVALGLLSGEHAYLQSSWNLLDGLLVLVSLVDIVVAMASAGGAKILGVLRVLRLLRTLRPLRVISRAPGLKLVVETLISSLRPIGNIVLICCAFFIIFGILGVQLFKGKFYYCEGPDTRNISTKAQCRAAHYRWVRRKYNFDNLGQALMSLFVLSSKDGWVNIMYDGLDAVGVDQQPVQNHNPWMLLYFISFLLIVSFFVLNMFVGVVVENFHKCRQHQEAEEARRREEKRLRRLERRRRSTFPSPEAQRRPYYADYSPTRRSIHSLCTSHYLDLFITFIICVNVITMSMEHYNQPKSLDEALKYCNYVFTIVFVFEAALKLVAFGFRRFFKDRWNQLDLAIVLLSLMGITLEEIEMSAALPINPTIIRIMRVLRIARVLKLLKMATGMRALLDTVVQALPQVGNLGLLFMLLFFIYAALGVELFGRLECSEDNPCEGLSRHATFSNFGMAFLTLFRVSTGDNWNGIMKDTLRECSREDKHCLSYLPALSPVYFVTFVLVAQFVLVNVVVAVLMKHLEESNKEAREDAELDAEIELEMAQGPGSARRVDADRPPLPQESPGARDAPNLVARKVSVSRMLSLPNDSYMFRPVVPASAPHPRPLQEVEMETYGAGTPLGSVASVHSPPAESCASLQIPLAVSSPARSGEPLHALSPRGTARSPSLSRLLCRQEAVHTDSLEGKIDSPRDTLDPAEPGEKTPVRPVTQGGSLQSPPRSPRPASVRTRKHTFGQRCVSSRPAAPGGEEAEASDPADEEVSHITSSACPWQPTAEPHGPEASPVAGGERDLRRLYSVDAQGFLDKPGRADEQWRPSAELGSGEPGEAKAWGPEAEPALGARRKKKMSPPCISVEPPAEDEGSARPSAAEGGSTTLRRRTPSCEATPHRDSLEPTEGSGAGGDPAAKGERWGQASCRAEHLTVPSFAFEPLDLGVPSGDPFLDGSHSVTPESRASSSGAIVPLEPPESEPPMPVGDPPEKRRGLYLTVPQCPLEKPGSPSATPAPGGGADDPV
T2 sequence (O43497 whole entry): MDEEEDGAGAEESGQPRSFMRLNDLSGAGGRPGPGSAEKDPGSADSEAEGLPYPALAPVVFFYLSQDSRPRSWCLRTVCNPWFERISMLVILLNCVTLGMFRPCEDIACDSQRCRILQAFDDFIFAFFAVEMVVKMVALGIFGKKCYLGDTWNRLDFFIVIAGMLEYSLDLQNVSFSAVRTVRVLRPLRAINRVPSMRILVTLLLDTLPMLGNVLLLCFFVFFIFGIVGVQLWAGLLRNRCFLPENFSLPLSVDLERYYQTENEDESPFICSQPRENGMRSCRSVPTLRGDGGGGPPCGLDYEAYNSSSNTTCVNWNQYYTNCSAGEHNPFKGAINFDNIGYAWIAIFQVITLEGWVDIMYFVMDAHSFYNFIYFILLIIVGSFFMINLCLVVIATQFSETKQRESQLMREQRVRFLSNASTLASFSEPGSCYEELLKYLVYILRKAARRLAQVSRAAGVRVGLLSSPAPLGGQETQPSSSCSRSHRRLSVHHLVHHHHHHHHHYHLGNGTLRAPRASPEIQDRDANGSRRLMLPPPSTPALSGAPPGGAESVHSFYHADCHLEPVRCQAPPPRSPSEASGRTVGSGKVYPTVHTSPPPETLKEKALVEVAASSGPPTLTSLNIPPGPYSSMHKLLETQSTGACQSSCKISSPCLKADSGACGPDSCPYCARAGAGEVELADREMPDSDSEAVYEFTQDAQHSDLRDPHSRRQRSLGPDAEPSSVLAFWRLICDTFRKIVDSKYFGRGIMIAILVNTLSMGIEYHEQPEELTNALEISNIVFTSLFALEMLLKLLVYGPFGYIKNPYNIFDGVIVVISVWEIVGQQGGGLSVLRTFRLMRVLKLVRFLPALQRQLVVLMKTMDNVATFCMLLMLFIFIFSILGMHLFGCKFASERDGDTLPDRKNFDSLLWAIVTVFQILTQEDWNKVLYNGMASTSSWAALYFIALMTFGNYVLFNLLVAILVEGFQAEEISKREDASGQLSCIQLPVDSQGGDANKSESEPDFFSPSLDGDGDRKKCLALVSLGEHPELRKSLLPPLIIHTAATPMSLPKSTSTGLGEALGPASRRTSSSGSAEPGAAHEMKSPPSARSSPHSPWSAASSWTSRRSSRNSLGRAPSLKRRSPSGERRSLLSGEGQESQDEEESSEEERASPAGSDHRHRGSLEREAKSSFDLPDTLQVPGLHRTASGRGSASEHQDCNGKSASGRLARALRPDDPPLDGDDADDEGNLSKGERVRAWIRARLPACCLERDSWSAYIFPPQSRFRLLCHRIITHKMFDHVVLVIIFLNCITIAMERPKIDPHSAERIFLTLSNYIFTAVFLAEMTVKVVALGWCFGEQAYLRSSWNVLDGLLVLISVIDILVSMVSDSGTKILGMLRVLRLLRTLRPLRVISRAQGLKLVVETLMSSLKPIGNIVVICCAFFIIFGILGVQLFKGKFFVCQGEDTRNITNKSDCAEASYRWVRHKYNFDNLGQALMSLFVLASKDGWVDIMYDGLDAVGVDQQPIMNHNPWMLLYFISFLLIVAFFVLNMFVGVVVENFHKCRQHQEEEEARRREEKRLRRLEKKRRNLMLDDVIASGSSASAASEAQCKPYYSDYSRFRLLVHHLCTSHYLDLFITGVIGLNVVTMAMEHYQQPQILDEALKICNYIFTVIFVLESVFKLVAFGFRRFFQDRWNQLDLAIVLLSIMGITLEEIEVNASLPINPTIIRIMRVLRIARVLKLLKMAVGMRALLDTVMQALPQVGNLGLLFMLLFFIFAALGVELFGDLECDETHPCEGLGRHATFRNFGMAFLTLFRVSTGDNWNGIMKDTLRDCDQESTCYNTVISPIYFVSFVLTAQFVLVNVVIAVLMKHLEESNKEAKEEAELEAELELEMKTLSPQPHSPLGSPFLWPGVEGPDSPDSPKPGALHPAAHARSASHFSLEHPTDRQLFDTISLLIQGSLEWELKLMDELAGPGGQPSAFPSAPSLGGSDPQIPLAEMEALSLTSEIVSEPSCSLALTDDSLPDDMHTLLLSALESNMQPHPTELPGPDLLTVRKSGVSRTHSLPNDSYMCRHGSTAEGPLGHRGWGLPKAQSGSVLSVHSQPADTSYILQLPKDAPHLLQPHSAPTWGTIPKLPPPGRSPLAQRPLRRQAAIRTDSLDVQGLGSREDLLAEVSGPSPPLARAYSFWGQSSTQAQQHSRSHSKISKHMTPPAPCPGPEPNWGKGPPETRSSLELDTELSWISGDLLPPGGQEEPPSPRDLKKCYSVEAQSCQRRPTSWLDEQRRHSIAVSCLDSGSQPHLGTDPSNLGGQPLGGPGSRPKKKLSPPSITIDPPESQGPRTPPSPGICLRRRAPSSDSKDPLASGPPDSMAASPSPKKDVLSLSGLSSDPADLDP

Work on NC1(CC(=O)N2CCC(NC(=O)Nc3cc(C(F)(F)F)cc(C(F)(F)F)c3)CC2)CCCCC1 [Compound 64, 1-(1-(2-(1-aminocyclohexyl)acetyl)piperidin-4-yl)-3-(3,5-bis(trifluoromethyl)phenyl)urea] yielded an IC50 (α1H (CaV 3.2)) of 360 nM.
Work on N[C@H]1CCCC[C@H]1C(=O)N1CC(CC(=O)Nc2cc(C(F)(F)F)cc(C(F)(F)F)c2)C1 (racemic) [Compound 41, cis-2-(1-(2-aminocyclohexanecarbonyl)azetidin-3-yl)-N-(3,5-bis(trifluoromethyl)phenyl)acetamide] yielded an IC50 (α1G (CaV 3.1)) greater than 10000 nM and an IC50 (α1H (CaV 3.2)) of 850 nM.
CN1CCCC(C(=O)N2CCC(CC(=O)Nc3cc(C(F)(F)F)cc(C(F)(F)F)c3)C2)C1 (stereo not shown) [Compound 36, N-(3,5-bis(trifluoromethyl)phenyl)-2-(1-(1-methylpiperidine-3-carbonyl)pyrrolidin-3-yl)acetamide] was tested, and the IC50 (α1G (CaV 3.1)) was 8100 nM and the IC50 (α1H (CaV 3.2)) was 2440 nM.
Work on N[C@@H]1CCCC[C@H]1C(=O)N1CCC(CNC(=O)c2cc(C(F)(F)F)cc(C(F)(F)F)c2)CC1 (racemic) [Compound 48] yielded an IC50 (α1G (CaV 3.1)) greater than 10000 nM and an IC50 (α1H (CaV 3.2)) of 1850 nM.
CC(C)(N)CC(=O)N1CCC(CC(=O)Nc2cc(C(F)(F)F)cc(C(F)(F)F)c2)C1 (stereo not shown) [Compound 44, 2-(1-(3-amino-3-methylbutanoyl)pyrrolidin-3-yl)-N-(3,5-bis(trifluoromethyl)phenyl)acetamide] showed an IC50 (α1G (CaV 3.1)) greater than 10000 nM and an IC50 (α1H (CaV 3.2)) of 2100 nM.
O=C(CC1(O)CCN(C(=O)[C@H]2CCCCN2)CC1)Nc1cc(C(F)(F)F)cc(C(F)(F)F)c1 [Compound 53, (R)-N-(3,5-bis(trifluoromethyl)phenyl)-2-(4-hydroxy-1-(piperidine-2-carbonyl)piperidin-4-yl)acetamide] showed an IC50 (α1H (CaV 3.2)) of 1860 nM.
N[C@H]1CCCC[C@@H]1C(=O)N1CCC(CC(=O)Nc2cc(F)c(F)cc2F)CC1 (racemic) [Compound 14, trans-2-(1-(2-aminocyclohexanecarbonyl)piperidin-4-yl)-N-(2,4,5-trifluorophenyl)acetamide] was tested, and the IC50 (α1H (CaV 3.2)) was greater than 10000 nM.
N[C@@H]1CCCC[C@@H]1C(=O)N1CCC(CC(=O)Nc2cc(C(F)(F)F)cc(C(F)(F)F)c2)CC1 [Compound 73] was tested, and the “Rotarod Assay (% impaired)” value ([1]; 0.25 hr) was 100%, the “Rotarod Assay (% impaired)” value ([1]; 0.5 hr) was 100% and the “Rotarod Assay (% impaired)” value ([1]; 1 hr) was 100%. For the same compound, the “Rotarod Assay (% impaired)” value ([1]; 2 hr) was 100%, the “Rotarod Assay (% impaired)” value ([1]; 4 hr) was 75% and the “Epilepsy 6 Hz (% Protected)” value (6 Hz psychomotor seizure; 0.25 hr) was 100%. For the same compound, the “Epilepsy 6 Hz (% Protected)” value (6 Hz psychomotor seizure; 0.5 hr) was 100%, the “Epilepsy 6 Hz (% Protected)” value (6 Hz psychomotor seizure; 1 hr) was 100% and the “Epilepsy 6 Hz (% Protected)” value (6 Hz psychomotor seizure; 4 hr) was 100%.
With O=C(CC1CCN(C(=O)C2CCCCN2)C1)Nc1cc(C(F)(F)F)cc(C(F)(F)F)c1 (stereo not shown) [Compound 29, N-(3,5-bis(trifluoromethyl)phenyl)-2-(1-(piperidine-2-carbonyl)pyrrolidin-3-yl)acetamide] the IC50 (α1G (CaV 3.1)) was 7020 nM and the IC50 (α1H (CaV 3.2)) was 570 nM.
N[C@H]1CCCC[C@H]1C(=O)N1CCC(CNC(=O)c2cc(C(F)(F)F)cc(C(F)(F)F)c2)CC1 (racemic) [Compound 49] showed an IC50 (α1H (CaV 3.2)) of 1930 nM.
In the case of N[C@@H]1CCCC[C@H]1C(=O)N1CCC(NC(=O)Nc2cc(C(F)(F)F)cc(C(F)(F)F)c2)CC1 (racemic) [Compound 62, trans-2-(1-(2-aminocyclohexanecarbonyl)piperidin-4-yl)-3-(3,5-bis(trifiuoromethyl)phenyl)urea], the IC50 (α1H (CaV 3.2)) is reported as 270 nM.
In the case of N[C@@H]1CCCC[C@H]1C(=O)N1CCC(CNC(=O)Nc2cc(C(F)(F)F)cc(C(F)(F)F)c2)CC1 (racemic) [Compound 57], the IC50 (α1H (CaV 3.2)) is reported as 250 nM.
NC1(CC(=O)N2CCC(CNC(=O)Nc3cc(C(F)(F)F)cc(C(F)(F)F)c3)CC2)CCCCC1 [Compound 59, 1-((1-(2-(1-aminocyclohexyl)acetyl)piperidin-4-yl)methyl)-3-(3,5-bis(trifluoromethyl)phenyl)urea] was tested, and the IC50 (α1H (CaV 3.2)) was 30 nM, the “Rotarod Assay (% impaired)” value ([1]; 0.25 hr) was 0% and the “Rotarod Assay (% impaired)” value ([1]; 0.5 hr) was 25%. For the same compound, the “Rotarod Assay (% impaired)” value ([1]; 1 hr) was 75%, the “Rotarod Assay (% impaired)” value ([1]; 2 hr) was 100% and the “Rotarod Assay (% impaired)” value ([1]; 4 hr) was 100%. For the same compound, the “Epilepsy 6 Hz (% Protected)” value (6 Hz psychomotor seizure; 0.25 hr) was 25%, the “Epilepsy 6 Hz (% Protected)” value (6 Hz psychomotor seizure; 0.5 hr) was 50% and the “Epilepsy 6 Hz (% Protected)” value (6 Hz psychomotor seizure; 1 hr) was 100%.
In the case of O=C(Nc1cc(C(F)(F)F)cc(C(F)(F)F)c1)NC1CCN(C(=O)[C@@H]2CCCCN2)CC1 [Compound 60, (S)-1-(3,5-bis(trifluoromethyl)phenyl)-3-(1-(piperidine-2-carbonyl)piperidin-4-yl)urea], the IC50 (α1H (CaV 3.2)) is reported as 950 nM.
N[C@@H]1CCCC[C@H]1C(=O)N1CCC(O)(CC(=O)Nc2cc(C(F)(F)F)cc(C(F)(F)F)c2)CC1 (relative stereo) [Compound 51, trans-2-(1-(2-aminocyclohexanecarbonyl)-4-hydroxypiperidin-4-yl)-N-(3,5-bis(trifluoromethyl)phenyl)acetamide] gave an IC50 (α1H (CaV 3.2)) of 490 nM.
With O=C(Nc1cc(C(F)(F)F)cc(C(F)(F)F)c1)OCC1CCN(C(=O)[C@H]2CCCCN2)CC1 [Compound 69] the “Rotarod Assay (% impaired)” value ([1]; 0.25 hr) was 0%, the “Rotarod Assay (% impaired)” value ([1]; 0.5 hr) was 50% and the “Rotarod Assay (% impaired)” value ([1]; 1 hr) was 50%. For the same compound, the “Rotarod Assay (% impaired)” value ([1]; 2 hr) was 100%, the “Rotarod Assay (% impaired)” value ([1]; 4 hr) was 100% and the “Epilepsy 6 Hz (% Protected)” value (6 Hz psychomotor seizure; 0.25 hr) was 75%. The “Epilepsy 6 Hz (% Protected)” value (6 Hz psychomotor seizure; 0.5 hr) was 75%, the “Epilepsy 6 Hz (% Protected)” value (6 Hz psychomotor seizure; 1 hr) was 50% and the “Epilepsy 6 Hz (% Protected)” value (6 Hz psychomotor seizure; 2 hr) was 100%. For the same compound, the “Epilepsy 6 Hz (% Protected)” value (6 Hz psychomotor seizure; 4 hr) was 33%.
N[C@@H]1CCCC[C@@H]1C(=O)N1CCC(O)(CC(=O)Nc2cc(C(F)(F)F)cc(C(F)(F)F)c2)CC1 (racemic) [Compound 52, cis-2-(1-(2-aminocyclohexanecarbonyl)-4-hydroxypiperidin-4-yl)-N-(3,5-bis(trifluoromethyl)phenyl)acetamide] was tested, and the IC50 (α1H (CaV 3.2)) was 820 nM.
For CC1(CC(=O)Nc2cc(C(F)(F)F)cc(C(F)(F)F)c2)CCN(C(=O)[C@H]2CCCCN2)CC1 [Compound 68], the “Epilepsy 6 Hz (% Protected)” value (6 Hz psychomotor seizure; 0.25 hr) was 50%, the “Epilepsy 6 Hz (% Protected)” value (6 Hz psychomotor seizure; 0.5 hr) was 75% and the “Epilepsy 6 Hz (% Protected)” value (6 Hz psychomotor seizure; 1 hr) was 100%. The “Epilepsy 6 Hz (% Protected)” value (6 Hz psychomotor seizure; 2 hr) was 50% and the “Epilepsy 6 Hz (% Protected)” value (6 Hz psychomotor seizure; 4 hr) was 0%.
Work on N[C@@H]1CCCC[C@@H]1C(=O)N1CCC(NC(=O)Nc2cc(C(F)(F)F)cc(C(F)(F)F)c2)CC1 (racemic) [Compound 63, cis-2-(1-(2-aminocyclohexanecarbonyl)piperidin-4-yl)-3-(3,5-bis(trifluoromethyl)phenyl)urea] yielded an IC50 (α1H (CaV 3.2)) of 430 nM.
N[C@@H]1CCCC[C@@H]1C(=O)N1CCC(CNC(=O)Nc2cc(C(F)(F)F)cc(C(F)(F)F)c2)CC1 (racemic) [Compound 58] was tested, and the IC50 (α1H (CaV 3.2)) was 250 nM.
With O=C(CC1(O)CCN(C(=O)[C@@H]2CCCCN2)CC1)Nc1cc(C(F)(F)F)cc(C(F)(F)F)c1 [Compound 50, (S)-N-(3,5-bis(trifluoromethyl)phenyl)-2-(4-hydroxy-1-(piperidine-2-carbonyl)piperidin-4-yl)acetamide] the IC50 (α1H (CaV 3.2)) was 520 nM.
N[C@H]1CCCC[C@@H]1C(=O)N1CCC(CC(=O)Nc2ccc(OC(F)(F)F)cc2)CC1 (racemic) [Compound 18, trans-2-(1-(2-aminocyclohexanecarbonyl)piperidin-4-yl)-N-(4-(trifluoromethoxy)phenyl)acetamide] gave an IC50 (α1H (CaV 3.2)) of 2730 nM.
For N[C@H]1CCCC[C@@H]1C(=O)N1CCC(CC(=O)Nc2ccc(F)cc2)CC1 (racemic) [Compound 11, trans-2-(1-(2-aminocyclohexanecarbonyl)piperidin-4-yl)-N-(4-fluorophenyl)acetamide], the IC50 (α1H (CaV 3.2)) was greater than 10000 nM.
O=C(Nc1cc(C(F)(F)F)cc(C(F)(F)F)c1)NC1CCN(C(=O)[C@H]2CCCCN2)CC1 [Compound 61, (R)-1-(3,5-bis(trifluoromethyl)phenyl)-3-(1-(piperidine-2-carbonyl)piperidin-4-yl)urea] gave an IC50 (α1H (CaV 3.2)) of 690 nM.
